Molecules are shown by their SMILES. Counter-ions that a name gives are not always drawn. Like-named read-outs stand apart in the source and are kept apart here.

This experiment has as its system Amphetamine Stereotypy. Put plainly: Antagonism of Amphetamine Stereotypy in Rats (ED50 for blocking characteristic amphetamine cage movement). Type of experiment: in vivo. The following applies: for ED50: Rattus norvegicus. The protocol:
The effects of the compounds of the present invention on prominent amphetamine-induced symptoms were studied in rats by a rating scale modeled after the one reported by Quinton and Halliwell, and Weissman. Groups of five rats were placed in a covered plastic cage measuring approximately 26 cm.×42 cm.×16 cm. […] They were then treated 1, 5 and 24 hrs. later with d-amphetamine sulfate, 5 mg./kg. intraperitoneally (i.p.). […] On the basis of dose-response data after amphetamine it was possible to determine the effective dose of the compound necessary to antagonize or block the characteristic amphetamine behavior of cage movement for fifty percent of the rats tested (ED50). The time of rating chosen coincides with the peak action of amphetamine which is 60-80 min. after treatment with this agent.
Employing the above-described procedure, the following 4a,9b-trans compounds were tested for their ability to block the behavior effects of amphetamine, the results being reported as the ED50 in mg./kg. at the indicated times: [drawing 30]
A. The following results were obtained on the mixture of diastereomers for those compounds wherein R contains a secondary alcohol group and on the single diastereomer of the other 4a, 9b-trans hexahydro-pyrido-indoles.
B. The results of tests in which compounds of the invention reported in Part A, above are compared with the corresponding δ-substituted-5-aryl-1,2,3,4-tetrahydropyrido[4,3-b]indoles of U.S. Pat. No. 4,001,263 are summarized below. For each pair the results obtained on the prior art compound (a) are given first and the results for the compound of the invention (b) are given second. Where indicated the test compound was also administered orally (p.o.) and tests were carried out for 48 hours.
C. […] In each case the compounds are of the formula
The tests were carried out for 72 hours.

[1] abbreviates: ip, 1 h, i.p., Part B, read-out: ED50, 1 Hr.
The mark [2] stands for this setting: ip, 5 h, i.p., Part B, read-out: ED50, 5 Hrs.
Setting [3] is: ip, 24 h, i.p., Part B, read-out: ED50, 24 Hrs.
Setting [4] is: po, 1 h, p.o., Part B, read-out: ED50, 1 Hr.
Setting [5] is: po, 5 h, p.o., Part B, read-out: ED50, 5 Hrs.
Setting [6] is: po, 24 h, p.o., Part B, read-out: ED50, 24 Hrs.
The mark [7] stands for this setting: sc, 1 h, s.c., Part A, read-out: ED50, 1 Hr.
Where [8] appears, read: sc, 5 h, s.c., Part A, read-out: ED50, 5 Hr.
Setting [9] is: sc, 24 h, s.c., Part A, read-out: ED50, 24 Hrs.

As usually defined, the ED50 is the midpoint of the dose-response relation. Regarding `OC(CCCN1CC[C@@H]2[C@@H](C1)c1cc(F)ccc1N2c1ccccc1F)c1ccc(F)cc1` (relative stereo) [trans-8-fluoro-5-(o-fluorophenyl)-2-[4-hydroxy-4-(p-fluorophenyl)butyl]-2,3,4,4a,5,9b-hexahydro-1H-pyrido[4,3-b]indole], the ED50 is, setting by setting: under setting [1], 0.1 to 0.32 mg/kg; under setting [2], about 0.1 mg/kg; under setting [3], about 0.1 mg/kg; under setting [4], under 1 mg/kg; under setting [5], under 1 mg/kg; under setting [6], under 1 mg/kg. Also, the ED50 was under 0.32 mg/kg under setting [7], under 0.32 mg/kg under setting [8] and under 0.32 mg/kg under setting [9].

In the case of `OC(CCCN1CCc2c(c3cc(F)ccc3n2-c2ccccc2F)C1)c1ccc(F)cc1` (stereo not shown) [drawing 43 (a), reference compound], the 50% effective dose (ED50) was 0.32 to 1 mg/kg under setting [1], 1 to 3.2 mg/kg under setting [2] and over 10 mg/kg under setting [3].

As to `OC(CCCN1CCc2c(c3cc(F)ccc3n2-c2ccc(F)cc2)C1)c1ccc(F)cc1` (stereo not shown) [drawing 41 (a), 8-Fluoro-5-(p-fluorophenyl)-2-[4-(p-fluorophenyl)-4-hydroxybutyl]-1,2,3,4-tetrahydro-γ-carboline hydrochloride, reference compound], the ED50 lay in the range of 0.1 to 0.32 mg/kg under setting [1]; 0.1 to 3.2 mg/kg under setting [2]; 1 to 3.2 mg/kg under setting [3]; 1 to 3.2 mg/kg under setting [4]; 0.32 to 1 mg/kg under setting [5]; 1 to 3.2 mg/kg under setting [6].

On to `OC(CCCN1CCc2c(c3ccccc3n2-c2ccccc2)C1)c1ccccc1` (stereo not shown) [drawing 40 (a), reference compound], for which the ED50 reads like this: under setting [1], 3.2 to 10 mg/kg; under setting [2], 3.2 to 10 mg/kg; under setting [3], over 10 mg/kg.

For the compound `OC(CCCN1CC[C@H]2[C@H](C1)c1ccccc1N2c1ccccc1)c1ccccc1` (relative stereo), the ED50 runs as follows: under setting [1], 0.032 to 0.1 mg/kg; under setting [2], 0.032 to 0.1 mg/kg; under setting [3], 0.1 to 0.32 mg/kg; under setting [7], 0.032 to 0.1 mg/kg; under setting [8], 0.032 to 0.1 mg/kg; under setting [9], 0.1 to 0.32 mg/kg.

In the case of `OC(CCCN1CC[C@H]2[C@@H](C1)c1ccccc1N2c1ccccc1)c1ccc(F)cc1` (relative stereo) [corresponding 4a, 9bcis analog, reference compound], the 50% effective dose (ED50) under setting [7] is 56 mg/kg.

In the case of `c1ccc(CCCN2CC[C@H]3[C@H](C2)c2ccccc2N3c2ccccc2)cc1` (relative stereo) [R = C6 H5 (CH2)3, reference compound], the ED50 was 3.2 to 10 mg/kg under setting [7], 3.2 to 10 mg/kg under setting [8] and over 10 mg/kg under setting [9].

For the compound `c1ccc(CN2CC[C@H]3[C@H](C2)c2ccccc2N3c2ccccc2)cc1` (relative stereo) [R = C6 H5 CH2, dl-trans-2-benzyl-2,3,4,4a,5,9b-hexahydro-5-phenyl-1H-pyrido[4,3-b]indole Hydrochloride, reference compound], the median effective dose (ED50) is about 10 mg/kg under setting [7], 3.2 to 32 mg/kg under setting [8] and over 3.2 mg/kg under setting [9].

For `CN1CCN(CC/C=C2/c3ccccc3Sc3ccc(S(=O)(=O)N(C)C)cc32)CC1` [Navane, cis-9-[3-(4-Methyl-1-piperazinyl)propylidene]-2-(dimethylsulfonamido)thioanthene, reference compound], the ED50 is 0.32 to 1 mg/kg (po, 1 h, po, Part A, read-out: ED50, 1 Hr.); over 10 mg/kg (po, 5 h, po, Part A, read-out: ED50, 5 Hr.); over 32 mg/kg (po, 24 h, po, Part A, read-out: ED50, 24 Hrs.).

Regarding `OC(CCCN1CC[C@H]2[C@H](C1)c1cc(F)ccc1N2c1ccc(F)cc1)c1ccccc1` (relative stereo), the ED50 was 0.1 to 0.32 mg/kg under setting [7], 0.1 to 0.32 mg/kg under setting [8] and under 0.32 mg/kg under setting [9].

For `Cl.OC(CCCN1CCC2C(C1)c1cc(F)ccc1N2c1ccc(F)cc1)c1ccc(F)cc1` (single isomer, unassigned) [β, 8-fluoro-5-(p-fluorophenyl)-2-[4-hydroxy-4-(p-fluorophenyl)butyl]-2,3,4,4a,5,9b-hexahydro-1H-pyrido[4,3-b]indole hydrochloride], the median effective dose (ED50) was over 1 mg/kg (sc, 1 h, s.c., Part C, isomers of Examples 13 and 14, read-out: ED50, 1 Hr.); over 10 mg/kg (sc, 1 h, s.c., Part D, enantiomers by synthesis of Example 21, read-out: ED50, 1 Hr.); over 1 mg/kg (sc, 5 h, s.c., Part C, isomers of Examples 13 and 14, read-out: ED50, 5 Hrs.); 5.7 mg/kg (sc, 5 h, s.c., Part D, enantiomers by synthesis of Example 21, read-out: ED50, 5 Hrs.); over 1 mg/kg (sc, 24 h, s.c., Part C, isomers of Examples 13 and 14, read-out: ED50, 24 Hrs.); over 10 mg/kg (sc, 24 h, s.c., Part D, enantiomers by synthesis of Example 21, read-out: ED50, 24 Hrs.). Further, the ED50 was over 10 mg/kg (sc, 48 h, s.c., Part D, enantiomers by synthesis of Example 21, read-out: ED50, 48 Hrs.) and over 10 mg/kg (sc, 72 h, s.c., Part D, enantiomers by synthesis of Example 21, read-out: ED50, 72 Hrs.).

With `Cl.OC(CCCN1CC[C@@H]2[C@@H](C1)c1cc(F)ccc1N2c1ccc(F)cc1)c1ccc(F)cc1` (single isomer, unassigned) [α, trans 8-fluoro-5-(p-fluorophenyl)-2-[4-hydroxy-4(p-fluorophenyl)butyl]-2,3,4,4a,5,9b-hexahydro-1H-pyrido[4,3-b]indole hydrochloride], the “ED50, 5 Hrs.” value (5 hrs, s.c., Part C, isomers of Examples 13 and 14, hydrochloride, 300 min) was 32-100 micrograms/kilograms. The “ED50, 24 Hrs.” value (24 hrs, s.c., Part C, isomers of Examples 13 and 14, hydrochloride, 1440 min) is 32-100 micrograms/kilograms. Also, the “ED50, 48 Hrs.” value (48 hrs, s.c., Part D, enantiomers by synthesis of Example 21, hydrochloride, 2880 min) is on record as “ca. 1 mg./kg”. Also, where the note is “72 hrs, s.c., Part D, enantiomers by synthesis of Example 21, hydrochloride, 4320 min”, the “ED50, 72 Hrs.” value was over 10 mg/kg.

With `OC(CCCN1CC[C@H]2[C@H](C1)c1ccccc1N2c1ccccc1)c1ccc(F)cc1` (relative stereo), the median effective dose (ED50) by setting is: under setting [7], 0.1 to 0.32 mg/kg; under setting [8], 0.1 to 0.32 mg/kg; under setting [9], 0.1 to 0.32 mg/kg.

`O=C(CCCN1CCc2c(c3cc(F)ccc3n2-c2ccc(F)cc2)C1)c1ccc(F)cc1` [drawing 42 (a), reference compound]: the ED50 under setting [1] was in the range of 3.2 to 10 mg/kg and the median effective dose (ED50) under setting [2] was over 10 mg/kg.

For the compound `O=C(CCCN1CC[C@H]2[C@H](C1)c1cc(F)ccc1N2c1ccc(F)cc1)c1ccc(F)cc1` (relative stereo), the ED50 under setting [1] was under 1 mg/kg; the ED50 under setting [2] was under 1 mg/kg; the ED50 under setting [3] is under 1 mg/kg; the 50% effective dose (ED50) under setting [7] is under 1 mg/kg; the ED50 under setting [8] was under 1 mg/kg; the ED50 under setting [9] is under 1 mg/kg.

Regarding `OC(CCCN1CC[C@H]2[C@H](C1)c1cc(F)ccc1N2c1ccc(F)cc1)c1ccc(F)cc1` (relative stereo) [drawing 37, dl-trans-8-Fluoro-5-(p-fluorophenyl)-2-[4-hydroxy-4-(p-fluorophenyl)butyl]-2,3,4,4a,5,9b-hexahydro-1H-pyrido[4,3-b]indole hydrochloride], the ED50 under setting [1] lay within 0.032 to 0.1 mg/kg; the 50% effective dose (ED50) under setting [2] is 0.032 to 0.1 mg/kg; the ED50 under setting [3] was in the range of 0.032 to 0.1 mg/kg; the ED50 (ip, 48 h, i.p., Part B, read-out: ED50, 48 Hrs.) fell in the range of 0.1 to 0.32 mg/kg; the ED50 under setting [4] was in the range of 0.32 to 1 mg/kg; the ED50 under setting [5] was in the range of 0.1 to 0.32 mg/kg. For the same compound, the median effective dose (ED50) under setting [6] is 0.1 to 0.32 mg/kg, the 50% effective dose (ED50) under setting [7] fell in the range of 0.032 to 0.1 mg/kg, the 50% effective dose (ED50) under setting [8] fell in the range of 0.032 to 0.1 mg/kg and the ED50 under setting [9] was in the range of 0.032 to 0.1 mg/kg.

Turning to `O=C(CCCN1CC[C@H]2[C@H](C1)c1ccccc1N2c1ccccc1)c1ccc(F)cc1` (relative stereo), the ED50 was about 0.32 mg/kg under setting [7], 0.1 to 0.32 mg/kg under setting [8] and about 0.32 mg/kg under setting [9].

On to `c1ccc(N2c3ccccc3[C@H]3CNCC[C@@H]32)cc1` (relative stereo) [R = H, dl-trans-5-Phenyl-2,3,4,4a,5,9b-hexahydro-1H-pyrido[4,3-b]indole, reference compound], for which the median effective dose (ED50) by setting is: (sc, 1 h, read-out: ED50, 1 Hr.) 3.2 to 32 mg/kg; (sc, 5 h, read-out: ED50, 5 Hr.) over 3.2 mg/kg; (sc, 24 h, read-out: ED50, 24 Hrs.) over 32 mg/kg.

The values are drawn from US4224329A, “2-Substitute d-trans-5-aryl-2,3,4,4a,5,9b-hexahydro-1H-pyrido[4,3-b]indoles” (Pfizer Inc., priority 1979, dated 1980).
